{"source": "PubChem BioAssay AID1963958", "about": "(Molecular Pharmacology Branch, DTP, NCI, 2024)", "system": "MDA-MB-231 multicell spheroids, viability", "test": "Anticancer human tumor MDA-MB-231 cell line growth inhibition [PI3K];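 as to all read-outs here: spheroids exposed to agents for seven days before reading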;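 as to viability, T/C: percent of vehicle control luminescence with DMSO treated spheroids as 100%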", "details": "for IC50: curve of first compound; for viability, T/C: stronger effect = lower value", "in_short": "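Three cell types, namely tumor cells, endothelial cells and mesenchymal stem cells, formed each spheroid. Combinations with four PI3K inhibitors were screened at clinically achievable concentrations decreasing by half-log, and spheroid viability was recorded.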", "key": {"[1]": {"details": "second compound 0.0316 µM, first compound 0.0316 µM"}, "[2]": {"details": "second compound 0.0316 µM, first compound 0.1 µM"}, "[3]": {"details": "second compound 0.0316 µM, first compound 0.316 µM"}, "[4]": {"details": "second compound 0.0316 µM, first compound 1 µM"}, "[5]": {"details": "second compound 0.0316 µM, first compound 3.16 µM"}, "[6]": {"details": "second compound 0.0316 µM, first compound 10 µM"}, "[7]": {"details": "second compound 0.1 µM, first compound 0.0316 µM"}, "[8]": {"details": "second compound 0.1 µM, first compound 0.1 µM"}, "[9]": {"details": "second compound 0.1 µM, first compound 0.316 µM"}, "[10]": {"details": "second compound 0.1 µM, first compound 1 µM"}, "[11]": {"details": "second compound 0.1 µM, first compound 3.16 µM"}, "[12]": {"details": "second compound 0.1 µM, first compound 10 µM"}, "[13]": {"details": "second compound 0.316 µM, first compound 0.0316 µM"}, "[14]": {"details": "second compound 0.316 µM, first compound 0.1 µM"}, "[15]": {"details": "second compound 0.316 µM, first compound 0.316 µM"}, "[16]": {"details": "second compound 0.316 µM, first compound 1 µM"}, "[17]": {"details": "second compound 0.316 µM, first compound 3.16 µM"}, "[18]": {"details": "second compound 0.316 µM, first compound 10 µM"}, "[19]": {"details": "second compound 1 µM, first compound 0.0316 µM"}, "[20]": {"details": "second compound 1 µM, first compound 0.1 µM"}, "[21]": {"details": "second compound 1 µM, first compound 0.316 µM"}, "[22]": {"details": "second compound 1 µM, first compound 1 µM"}, "[23]": {"details": "second compound 1 µM, first compound 3.16 µM"}, "[24]": {"details": "second compound 1 µM, first compound 10 µM"}, "[25]": {"details": "second compound 3.16 µM, first compound 0.0316 µM"}, "[26]": {"details": "second compound 3.16 µM, first compound 0.1 µM"}, "[27]": {"details": "second compound 3.16 µM, first compound 0.316 µM"}, "[28]": {"details": "second compound 3.16 µM, first compound 1 µM"}, "[29]": {"details": "second compound 3.16 µM, first compound 3.16 µM"}, "[30]": {"details": "second compound 3.16 µM, first compound 10 µM"}, "[31]": {"details": "second compound 10 µM, first compound 0.0316 µM"}, "[32]": {"details": "second compound 10 µM, first compound 0.1 µM"}, "[33]": {"details": "second compound 10 µM, first compound 0.316 µM"}, "[34]": {"details": "second compound 10 µM, first compound 1 µM"}, "[35]": {"details": "second compound 10 µM, first compound 3.16 µM"}, "[36]": {"details": "second compound 10 µM, first compound 10 µM"}}}
{"smiles": "Cn1ncc(Cl)c1-c1cc(C(=O)NC(CN)Cc2cccc(F)c2)sc1Cl", "note": "(centres undefined) + Cc1nc(NC(=O)N2CCCC2C(N)=O)sc1-c1ccnc(C(C)(C)C(F)(F)F)c1", "values": [{"measurement": "IC50", "setting": "second compound 0.0316 µM", "value": 3290, "unit": "nM"}, {"measurement": "IC50", "setting": "second compound 0.1 µM", "value": 2710, "unit": "nM"}, {"measurement": "IC50", "setting": "second compound 0.316 µM", "value": 1900, "unit": "nM"}, {"measurement": "IC50", "setting": "second compound 1 µM", "value": 1900, "unit": "nM"}, {"measurement": "IC50", "setting": "second compound 3.16 µM", "value": 1800, "unit": "nM"}, {"measurement": "IC50", "setting": "second compound 10 µM", "value": 2480, "unit": "nM"}, {"measurement": "viability, T/C", "setting": "[1]", "value": 104, "unit": "%"}, {"measurement": "viability, T/C", "setting": "[2]", "value": 89.2, "unit": "%"}, {"measurement": "viability, T/C", "setting": "[3]", "value": 82.9, "unit": "%"}, {"measurement": "viability, T/C", "setting": "[4]", "value": 71.8, "unit": "%"}, {"measurement": "viability, T/C", "setting": "[5]", "value": 49.9, "unit": "%"}, {"measurement": "viability, T/C", "setting": "[6]", "value": 28.8, "unit": "%"}, {"measurement": "viability, T/C", "setting": "[7]", "value": 86.6, "unit": "%"}, {"measurement": "viability, T/C", "setting": "[8]", "value": 83.3, "unit": "%"}, {"measurement": "viability, T/C", "setting": "[9]", "value": 81, "unit": "%"}, {"measurement": "viability, T/C", "setting": "[10]", "value": 66.2, "unit": "%"}, {"measurement": "viability, T/C", "setting": "[11]", "value": 47.8, "unit": "%"}, {"measurement": "viability, T/C", "setting": "[12]", "value": 24.4, "unit": "%"}, {"measurement": "viability, T/C", "setting": "[13]", "value": 76, "unit": "%"}, {"measurement": "viability, T/C", "setting": "[14]", "value": 80.8, "unit": "%"}, {"measurement": "viability, T/C", "setting": "[15]", "value": 70.5, "unit": "%"}, {"measurement": "viability, T/C", "setting": "[16]", "value": 64.8, "unit": "%"}, {"measurement": "viability, T/C", "setting": "[17]", "value": 38.8, "unit": "%"}, {"measurement": "viability, T/C", "setting": "[18]", "value": 25.1, "unit": "%"}, {"measurement": "viability, T/C", "setting": "[19]", "value": 67.7, "unit": "%"}, {"measurement": "viability, T/C", "setting": "[20]", "value": 72.3, "unit": "%"}, {"measurement": "viability, T/C", "setting": "[21]", "value": 64.3, "unit": "%"}, {"measurement": "viability, T/C", "setting": "[22]", "value": 57, "unit": "%"}, {"measurement": "viability, T/C", "setting": "[23]", "value": 44.4, "unit": "%"}, {"measurement": "viability, T/C", "setting": "[24]", "value": 24.5, "unit": "%"}, {"measurement": "viability, T/C", "setting": "[25]", "value": 72.1, "unit": "%"}, {"measurement": "viability, T/C", "setting": "[26]", "value": 66.6, "unit": "%"}, {"measurement": "viability, T/C", "setting": "[27]", "value": 66.7, "unit": "%"}, {"measurement": "viability, T/C", "setting": "[28]", "value": 57.6, "unit": "%"}, {"measurement": "viability, T/C", "setting": "[29]", "value": 42.7, "unit": "%"}, {"measurement": "viability, T/C", "setting": "[30]", "value": 26.6, "unit": "%"}, {"measurement": "viability, T/C", "setting": "[31]", "value": 69, "unit": "%"}, {"measurement": "viability, T/C", "setting": "[32]", "value": 62, "unit": "%"}, {"measurement": "viability, T/C", "setting": "[33]", "value": 57.9, "unit": "%"}, {"measurement": "viability, T/C", "setting": "[34]", "value": 60.4, "unit": "%"}, {"measurement": "viability, T/C", "setting": "[35]", "value": 48, "unit": "%"}, {"measurement": "viability, T/C", "setting": "[36]", "value": 23.5, "unit": "%"}]}
{"smiles": "Cn1nccc1Nc1nccc(-c2ccn(C(CO)c3ccc(Cl)c(F)c3)c(=O)c2)n1", "note": "(centres undefined) + Cc1nc(NC(=O)N2CCCC2C(N)=O)sc1-c1ccnc(C(C)(C)C(F)(F)F)c1", "values": [{"measurement": "IC50", "setting": "second compound 0.0316 µM", "value": 610, "unit": "nM"}, {"measurement": "IC50", "setting": "second compound 0.1 µM", "value": 423, "unit": "nM"}, {"measurement": "IC50", "setting": "second compound 0.316 µM", "value": 151, "unit": "nM"}, {"measurement": "IC50", "setting": "second compound 1 µM", "value": 88.1, "unit": "nM"}, {"measurement": "IC50", "setting": "second compound 3.16 µM", "value": 57.6, "unit": "nM"}, {"measurement": "IC50", "setting": "second compound 10 µM", "value": "< 31.6", "unit": "nM"}, {"measurement": "viability, T/C", "setting": "[1]", "value": 75.6, "unit": "%"}, {"measurement": "viability, T/C", "setting": "[2]", "value": 65, "unit": "%"}, {"measurement": "viability, T/C", "setting": "[3]", "value": 56.1, "unit": "%"}, {"measurement": "viability, T/C", "setting": "[4]", "value": 45.3, "unit": "%"}, {"measurement": "viability, T/C", "setting": "[5]", "value": 36.5, "unit": "%"}, {"measurement": "viability, T/C", "setting": "[6]", "value": 26, "unit": "%"}, {"measurement": "viability, T/C", "setting": "[7]", "value": 66.2, "unit": "%"}, {"measurement": "viability, T/C", "setting": "[8]", "value": 58.1, "unit": "%"}, {"measurement": "viability, T/C", "setting": "[9]", "value": 54, "unit": "%"}, {"measurement": "viability, T/C", "setting": "[10]", "value": 41.6, "unit": "%"}, {"measurement": "viability, T/C", "setting": "[11]", "value": 35.7, "unit": "%"}, {"measurement": "viability, T/C", "setting": "[12]", "value": 22.4, "unit": "%"}, {"measurement": "viability, T/C", "setting": "[13]", "value": 62.2, "unit": "%"}, {"measurement": "viability, T/C", "setting": "[14]", "value": 49.5, "unit": "%"}, {"measurement": "viability, T/C", "setting": "[15]", "value": 46.7, "unit": "%"}, {"measurement": "viability, T/C", "setting": "[16]", "value": 37.6, "unit": "%"}, {"measurement": "viability, T/C", "setting": "[17]", "value": 29.3, "unit": "%"}, {"measurement": "viability, T/C", "setting": "[18]", "value": 21.9, "unit": "%"}, {"measurement": "viability, T/C", "setting": "[19]", "value": 56.6, "unit": "%"}, {"measurement": "viability, T/C", "setting": "[20]", "value": 47.2, "unit": "%"}, {"measurement": "viability, T/C", "setting": "[21]", "value": 43.6, "unit": "%"}, {"measurement": "viability, T/C", "setting": "[22]", "value": 34.6, "unit": "%"}, {"measurement": "viability, T/C", "setting": "[23]", "value": 25.1, "unit": "%"}, {"measurement": "viability, T/C", "setting": "[24]", "value": 19.7, "unit": "%"}, {"measurement": "viability, T/C", "setting": "[25]", "value": 53.8, "unit": "%"}, {"measurement": "viability, T/C", "setting": "[26]", "value": 47.2, "unit": "%"}, {"measurement": "viability, T/C", "setting": "[27]", "value": 37.8, "unit": "%"}, {"measurement": "viability, T/C", "setting": "[28]", "value": 34.3, "unit": "%"}, {"measurement": "viability, T/C", "setting": "[29]", "value": 24.2, "unit": "%"}, {"measurement": "viability, T/C", "setting": "[30]", "value": 16.7, "unit": "%"}, {"measurement": "viability, T/C", "setting": "[31]", "value": 43.2, "unit": "%"}, {"measurement": "viability, T/C", "setting": "[32]", "value": 37.1, "unit": "%"}, {"measurement": "viability, T/C", "setting": "[33]", "value": 33, "unit": "%"}, {"measurement": "viability, T/C", "setting": "[34]", "value": 29.6, "unit": "%"}, {"measurement": "viability, T/C", "setting": "[35]", "value": 21.9, "unit": "%"}, {"measurement": "viability, T/C", "setting": "[36]", "value": 10.6, "unit": "%"}]}
